IC50 data for one molecule are collected here from article PMC6657673, “Synthesis of an α-phosphono-α,α-difluoroacetamide analogue of the diphosphoinositol pentakisphosphate 5-InsP7” (MedChemComm, 2019).

For the experiment, the target named is T1, diphosphoinositol pentakisphosphate kinase 2 (PPIP5K2) (Homo sapiens, UniProt O43314).
T1 construct: kinase domain, residues 41–366 (crystal); residues 1–366 (kinase assay)
T1 sequence (O43314 1-366): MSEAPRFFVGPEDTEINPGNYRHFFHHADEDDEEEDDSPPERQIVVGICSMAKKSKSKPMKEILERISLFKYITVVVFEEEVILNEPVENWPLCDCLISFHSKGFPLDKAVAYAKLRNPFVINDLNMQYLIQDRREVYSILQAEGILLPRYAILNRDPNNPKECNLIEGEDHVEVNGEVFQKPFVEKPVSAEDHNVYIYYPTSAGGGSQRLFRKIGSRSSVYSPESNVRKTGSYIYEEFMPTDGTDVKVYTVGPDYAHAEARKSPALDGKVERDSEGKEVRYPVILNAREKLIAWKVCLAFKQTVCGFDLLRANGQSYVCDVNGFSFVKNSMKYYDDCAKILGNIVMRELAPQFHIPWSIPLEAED
Description: X-ray co-crystal structure (soak); also reverse-kinase inhibition assay (ATP generation from ADP and […]-[PP]2-InsP4). In kind it is biochemical.

Molecule `O=C(N[C@@H]1[C@@H](OP(=O)(O)O)[C@H](OP(=O)(O)O)[C@H](OP(=O)(O)O)[C@H](OP(=O)(O)O)[C@H]1OP(=O)(O)O)C(F)(F)P(=O)(O)O` [compound 1, 5-Deoxy-5-(phosphonodifluoroacetamido)-myo-inositol 1,2,3,4,6-pentakisphosphate] displayed an IC50 of 375 nM.
